How the values were obtained:
[1] = Mouse plasma and brain exposure after IP dose; type: in vivo, C57Bl6 mice
[2] = test system: Rev-erbα-NCoR interaction; settings: read-out: EC50, enhancement of Rev-erbα-NCoR interaction; FRET assay; cited from earlier work
Rev-erbα [3] = molecular target: T1, Rev-erbα (Homo sapiens, UniProt P20393); settings: Luminex technology; cited from earlier work
T1 sequence (P20393 1-614): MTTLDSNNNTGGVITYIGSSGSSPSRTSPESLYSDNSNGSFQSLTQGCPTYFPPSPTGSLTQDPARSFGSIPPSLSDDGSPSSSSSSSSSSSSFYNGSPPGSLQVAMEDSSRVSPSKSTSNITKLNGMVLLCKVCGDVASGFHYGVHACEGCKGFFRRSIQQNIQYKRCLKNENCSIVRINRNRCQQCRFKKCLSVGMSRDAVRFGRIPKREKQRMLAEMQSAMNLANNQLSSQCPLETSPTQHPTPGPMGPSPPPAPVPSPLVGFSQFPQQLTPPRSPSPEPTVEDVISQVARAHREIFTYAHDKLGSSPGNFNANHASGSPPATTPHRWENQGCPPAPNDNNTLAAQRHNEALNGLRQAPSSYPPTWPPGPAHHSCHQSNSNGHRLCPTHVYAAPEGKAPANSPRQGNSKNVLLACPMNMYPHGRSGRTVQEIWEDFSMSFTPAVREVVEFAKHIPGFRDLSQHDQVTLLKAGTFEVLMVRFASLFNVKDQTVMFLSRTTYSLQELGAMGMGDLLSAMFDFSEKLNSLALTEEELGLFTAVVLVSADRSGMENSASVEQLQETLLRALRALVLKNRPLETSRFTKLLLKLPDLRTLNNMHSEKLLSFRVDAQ

Rev-erbβ = settings: Luminex technology; cited from earlier work
LRH1 = settings: same FRET assay; reported; cited from earlier work
SF1 = settings: same FRET assay; reported; cited from earlier work
FXR = settings: same FRET assay; reported; cited from earlier work
RORα = settings: same FRET assay; reported; cited from earlier work
LXRα = settings: reporter-gene assay; reported; cited from earlier work
LXRβ = settings: reporter-gene assay; reported; cited from earlier work
Rev-erbα [4] = molecular target: T1, Rev-erbα; settings: circular dichroism analysis; cited from earlier work
Rev-erbα [5] = molecular target: T1, Rev-erbα; settings: HEK293 cells, Gal4 DBD:REV-ERB LBD α; cited from earlier work
[6] = test system: REV-ERB ligand binding domain (LBD) β; settings: HEK293 cells, Gal4 DBD:REV-ERB LBD β; cited from earlier work

SMILES: CC(C)(C)OC(=O)CN(Cc1ccc(Cl)cc1)Cc1ccc([N+](=O)[O-])s1 [Compound 1]
- b.p. (brain penetration) ([1]; mice, 10 mg/kg IP in 10:10:80 DMSO:Tween:water, t = 2h): 140%
- EC50 [2]: 400 nM
- interaction of Rev-erbα with the NCoR peptide (Rev-erbα [3]): dose-dependently increased
- interaction of Rev-erbβ with the NCoR peptide (Rev-erbβ): dose-dependently increased
- activity on LRH1 (LRH1): no activity
- activity on SF1 (SF1): no activity
- activity on FXR (FXR): no activity
- activity on RORα (RORα): no activity
- activity on LXRα (LXRα): no activity
- activity on LXRβ (LXRβ): no activity

SMILES: CCOC(=O)N1CCC(CN(Cc2ccc(Cl)cc2)Cc2ccc([N+](=O)[O-])s2)C1 (stereo not drawn) [Compound 12e]
- [Brain] ([1]; mice, 50 mg/kg IP in 15% cremaphor EL, brain levels at 8h): ^d8.7 μM
- Direct binding to Rev-erbα (Rev-erbα [4]): confirmed
- Rev-erb-dependent repressor activity (LBD α) (Rev-erbα [5]): dose-dependently increased
- Rev-erb-dependent repressor activity (LBD β) [6]: dose-dependently increased

SMILES: CS(=O)(=O)N1CCC(CN(Cc2ccc(Cl)cc2)Cc2ccc([N+](=O)[O-])s2)C1 (stereo not drawn) [Compound 12j]
- Kp at 2 h ([1]; C57Bl6, mouse, brain, ip, 10 mg/kg): 2.42

From publication PMC3376186 (Bioorganic & medicinal chemistry letters, 2012)
